Experimental data taken from patent US20180228124A1, “ANIMAL LITTER COMPRISING CINNAMIC AND/OR ROSMARINIC COMPOUNDS” (The Clorox Company, priority 2017, published 2018).

Tested on: ammonia formation
Experiment: Ammonia formation in sodium bentonite clay litter contacted with feline urine, monitored daily
Details: for ammonia at day 11 / inhibition of ammonia formation: FIG. 2; for Day 11 NH3 PPM (mean): treatment dosed at 0.5 g per 100 g of litter, FIG. 3 / FIG. 4 data; for ammonia formation versus virgin clay litter control: 0.5 g per 100 g of litter, FIG. 3; for inhibition of ammonia formation: 0.02 g per 100 g of litter (0.02% by weight)
Protocol: The efficacy of various anti-oxidant rich spices was tested for ability to inhibit ammonia growth in litter compositions. FIG. 1 illustrates the results for each test that was performed. Each litter substrate included sodium bentonite clay. A control included virgin clay, with no added spice. Each of the other samples tested included a particular spice, dosed onto or into the clay litter substrate at 1.5 g per 100 g of clay substrate (a 1.5% loading of each of the tested spices). The tested spices were cinnamon, peppermint, rosemary, rubbing sage, spearmint, star anise, sumac, thyme, and turmeric. A control was also tested that included no spice at all. Each sample was contacted with 20 mL of feline urine, and then monitored over a period of 11 days, with the mean PPM of ammonia recorded for each day.
Each of the treatments tested in FIG. 3 were dosed at 0.5 g per 100 g of litter. Many of the other treatments tested were similarly dosed, unless stated otherwise (i.e., 0.5 g per 100 g of litter).

For `O=C(O)/C=C/c1ccc(O)c(O)c1` [Caffeic acid, Caffeic Acid], the “ammonia at day 11” value (0.5% caffeic acid (0.5 g per 100 g of litter)) was “less than 60 ppm”, the “ammonia at day 11” value (1% caffeic acid (1 g per 100 g of litter)) was “less than 40 ppm” and the “Day 11 NH3 PPM (mean)” value was 47.894 PPM.
In the case of `O=C/C=C/c1ccccc1` [Cinnamaldehyde], the “Day 11 NH3 PPM (mean)” value is reported as 4.150 PPM.
`CCOC(=O)/C=C/c1ccccc1` [Ethyl cinnamate, Ethyl Cinnamate, reference compound] was tested, and the “ammonia formation versus virgin clay litter control” value was “promotes ammonia (odor) formation” and the “Day 11 NH3 PPM (mean)” value was 126.324 PPM.
In the case of `COc1cc(/C=C/C(=O)O)ccc1O` [Ferulic acid, Ferulic Acid], the “Day 11 NH3 PPM (mean)” value is reported as 62.182 PPM.
For `O=C(O)CCc1ccccc1` [Hydrocinnamic acid], the “Day 11 NH3 PPM (mean)” value was 45.720 PPM.
For `O=C(/C=C/c1ccc(O)c(O)c1)O[C@H](Cc1ccc(O)c(O)c1)C(=O)O` [Rosmarinic acid, Rosmarinic Acid], the “efficacy of odor inhibition compared with 0.44% borate treated litter” value (0.5% rosmarinic acid, FIG. 4) was “comparable in efficacy to the borate treated litter substrate” and the “Day 11 NH3 PPM (mean)” value was 20-30 PPM.
For `COc1cc(/C=C/C(=O)O)cc(OC)c1O` [Sinapic acid, Sinapic Acid], the “Day 11 NH3 PPM (mean)” value was 38.428 PPM.
In the case of `O=C(O)/C=C/c1ccccc1` [Trans-cinnamic acid, Trans-Cinnamic Acid], the “Day 11 NH3 PPM (mean)” value is reported as 4.493 PPM.
In the case of `O.O.O.O.O.O.O.O.O.O.O.O.O=S(=O)([O-])[O-].O=S(=O)([O-])[O-].[Al+3].[K+]` [alum, hydrated potassium aluminum sulfate, reference compound], the “ammonia formation versus virgin clay litter control” value is reported as “better than the virgin clay litter control”.
`CC(C)c1cc2c(c(O)c1O)[C@@]1(C(=O)O)CCCC(C)(C)[C@@H]1CC2` [carnosic acid, Carnosic Acid] was tested, and the “inhibition of ammonia formation” value was “significant inhibition of ammonia formation”.
With `O=C(O)/C=C/c1ccc(O)cc1` [p-coumaric acid, p-Coumaric Acid] the “Day 11 NH3 PPM (mean)” value was 26.199 PPM.
With `CC(O)C(=O)[O-].[Ag+]` (stereo not shown) [silver lactate, reference compound] the “ammonia formation versus virgin clay litter control” value was “better than the virgin clay litter control”.
With `O=C([O-])[O-].O=C([O-])[O-].OO.OO.OO.[Na+].[Na+].[Na+].[Na+]` [sodium percarbonate, reference compound] the “ammonia formation versus virgin clay litter control” value was “better than the virgin clay litter control”.
In the case of `C[C@H]1[C@H](C)CC[C@]2(C(=O)O)CC[C@]3(C)C(=CC[C@@H]4[C@@]5(C)CC[C@H](O)C(C)(C)[C@@H]5CC[C@]43C)[C@H]12` [ursolic acid, Ursolic Acid], the “inhibition of ammonia formation” value is reported as “significant inhibition of ammonia formation”.
With borate [reference compound] the “ammonia at day 11” value (litter substrate treated with 0.44% borate) was 76 ppm.
